Measurements published in US12258377B2 (Scancell Limited, priority 2012, dated 2025).
Square brackets hold non-standard residues; d marks the D form. Ends that are not written are not given here. Cit = NC(=O)NCCC[C@H](N)C(=O)O

Legend:
splenocytes [1] = assay: Ex vivo elispot assay on splenocytes of immunised HLA-DR1 / HLA-A2/DR1 (HHDII/DR1) transgenic mice; format: in vivo
Experimental: (§1) C57BL/6 mice (Charles River, UK), HLA-DR4 mice (Taconic, USA), HHDII mice (Pasteur institute, France) and HHDII/DRI mice (Pasteur institute, France) were used, aged between 8 and 12 weeks, and cared for by the staff at Nottingham Trent University. All work was carried out under a Home Office project license. Peptides were dissolved in 10% Dimethylformamide to 1 mg/ml and then emulsified (a series of dilutions) with different adjuvants: CpG and MPLA 6 μg/mouse of each (Invivogen, UK), Incomplete Freund's […] (Sigma, UK), and GMCSF 10 μg/mouse (Peprotech, UK). Peptides (25 μg/mouse) were injected subcutaneously at the base of the tail. DNA (1 μg/mouse) was coated onto 1.0 μm gold particles (BioRad, Hemel Hempstead, UK) using the manufacturer's instructions and administered intradermally by genegun (BioRad). Homspera (10 nM/mouse) (PeptideSynthetics, UK) was injected intradermally with genegun immunisation. Mice were immunized at either day 0 for peptide immunisation or days, 0, 7, and 14 for peptide and genegun immunisation. Spleens were removed for analysis at day 14 for peptide and day 20 for peptide or genegun immunisation unless stated otherwise. 400 μg Anti-CD25 antibody (PC61) was administered i.p. in saline 3 days prior to the immunisation. 200 μg Anti-CTLA-4 antibody (UC 10-4F, 10-11) was administered i.p. in saline at day 7 and 14 with either genegun or peptide immunisation.
(§2) Elispot assays were performed using murine IFNγ, IL-17 and IL-10 capture and detection reagents according to the manufacturer's instructions (Mabtech, Sweden). In brief, anti-IFNγ, IL-17 and IL-10 antibodies were coated onto wells of 96-well Immobilin-P plate. Synthetic peptides (at a variety of concentrations) and 5×10^5 per well splenocytes were added to the wells of the plate in triplicate. Tumour target cells were added where relevant at 5×10^4/well in triplicate and plates incubated for 40 hrs at 37° C. After incubation, captured IFNγ, […], IL-17 and IL-10 were detected by biotinylated anti-IFNγ, IL-17 and IL-10 antibodies and developed with a strepatavidin alkaline phosphatase and chromogenic substrate. Spots were analysed and counted using an automated plate reader (Cellular Technologies Ltd). Functional avidity was calculated as the concentration mediating 50% maximal effector function using a graph of effector function versus peptide concentration.

splenocytes [2] = assay: Ex vivo elispot assay on splenocytes of immunised C57B1 mice; format: in vivo, C57BL/6 mice; conditions: combination of 3 citrullinated peptides (3×10 μg) with CpG and MPLA; day 14; C57B1/6 mice
Experimental: as §1, §2

splenocytes [3] = assay: Ex vivo elispot assay on splenocytes of immunised HLA-DR4 transgenic mice; format: in vivo; conditions: for IFNg elispot response to citrullinated peptide over unmodified peptide or background control: citrullinated peptides 25 ug s.c. in CpG and MPLA, FIG. 34; for IL-10 elispot responses: against wild type and citrullinated peptides; for IFNγ elispot response to wild type peptide, mean / IFNγ elispot response to citrullinated peptide, mean: day 14 splenocytes; for IFNγ elispot response against vimentin 28-49 triple, double and single citrullinated peptides: peptide immunisation, FIG. 11
Experimental: as §1, §2

PBMC = assay: Proliferation assay of PBMC from cancer patients; format: cell-based, human; conditions: PBMC stimulated with 10 μg/ml peptide for 4, 7 and 11 days, 3H-thymidine
Experimental: PBMC were isolated from freshly drawn heparinised blood by Ficol-Hypaque (Sigma) gradient centrifugation. PBMC (1.5×10^6 cells/well) were stimulated with single peptides (final concentration 10 μg/ml) in RPMI containing 5% pooled autologous human serum, 2 mM glutamine, 20 mM HEPES and Penicillin-streptomycin (1%) in a final volume of 2 ml. Stimulation with purified protein derivative, PPD (final concentration 10 μg/ml) served as a positive control for the proliferative capacity of PBMC. As a negative control PBMC were incubated with medium alone. The PBMC were cultured at 37° C. in an atmosphere of 5% CO2 for 4, 7 and 11 days. To assess proliferation at these times points 100 μl in triplicate from each culture was aliquoted into a round bottom well of a 96 well plate and ^3H-thymidine added (0.0185 MBq/well) and incubated at 37° C. for a further 8 hours. The cultures were harvested onto unifilter plates and incorporation of ^3H-thymidine was determined by β-scintillation counting. The results were assessed by calculating the stimulation index (SI) as the ratio of the mean of counts per minute (cpm) of epitope-stimulated to the mean of unstimulated cultures. The proliferative assay was considered positive when SI >2.5.

splenocytes [4] = assay: Ex vivo elispot assay on splenocytes of immunised HLA-DR1 / HLA-A2/DR1 (HHDII/DR1) transgenic mice; format: in vivo; conditions: combination of 3 citrullinated peptides (3×10 μg) with CpG and MPLA; day 14; HLA-DR1 transgenic mice
B16F1-DR4 cells = assay: Tumour challenge with B16F1-DR4 cells; format: in vivo, HLA-DR4 transgenic mice; conditions: peptide 25 μg in CpG and MPLA s.c. or DNA via gene gun, days 4, 11, 18; versus unimmunised control
Experimental: For tumour challenge experiments mice were challenged with 2.5×10^4 B16 HHDII NYESO/TAP2 siβ2m 1F10 cells or B16 DR4 2E7 cells subcutaneously on the right flank 3 days prior to primary immunisation and then were immunised as above. Anti-IFNγ antibody (300 μg/dose), anti-IL-17 antibody (200 μg/dose) and anti-HLA-DR antibody (300 μg/dose) were administered i.p. in saline at days 2, 7, 11 and 14 post tumour implant. Anti-CD4 antibody (500 μg/dose) was administered i.p.in saline at days 2 and 8 post tumour implant. Tumour growth was monitored at 3-4 days intervals and mice were humanely euthanized once tumour reached ≥10 mm in diameter.

[5] = 25 μg in MPLA and CPG s.c. days 0, 7, 14, HLA-DR1 transgenic mice
[6] = 25 μg peptide with CpG and MPLA day 0, day 14
[7] = 25 μg peptide with CpG and MPLA day 0, day 14, peptide 5 μM
[8] = 25 μg peptide with CpG and MPLA day 0, peptide 5 μM
[9] = 25 μg peptide with CpG and MPLA day 0, day 14, recall peptide not specified

## AQKKLKLVRTSPEYGMP
Splenocytes [1]; HLA-DR1 transgenic mice
  immune response after immunisation: failed to stimulate any immune response

## AQKKLKLVcitTSPEYGMP (AQKKLKLV[Cit]TSPEYGMP)
Splenocytes [1]; [5]
  IFNγ/IL-17 response to the citrullinated peptide, mean: 200 spots/million splenocytes
  IFNγ/IL-17 response to the wild type peptide: no response
Splenocytes [1]; IFNγ elispot, HLA-A2/DR1 mice
  response in presence of MHC class II blocking mab: blocked

## EAENTLQSFRQDVDNASLA [Vimentin 20]
Splenocytes [2]
  IL-17 response, screening of citrullinated 20 mer peptides: ~400 spots/million splenocytes

## EKLQEEMLQREEAENTLQS [Vimentin 19]
Splenocytes [2]
  IL-17 response, screening of citrullinated 20 mer peptides: ~400 spots/million splenocytes

## KLATEYMSSARSLSSEEK [ING4 44-58]
Splenocytes [3]
  IFNg elispot response to citrullinated peptide over unmodified peptide or background control: significant responses

## LPNFSSLNLRETNLDSLPL [wild type vim 415-433 peptide]
PBMC
  patients showing a proliferative response (SI >2.5): 8/11
PBMC; listed as unmodified vim 415
  patients showing a proliferative response (SI >2.5): Six of eleven
Splenocytes [3]; 25 μg peptide in MPLA and CPG s.c., day 14, FIG. 30
  IL-10 response, mean: 580 spots/million splenocytes
Splenocytes [3]; [6]
  IL-10 elispot responses: No significant IL-10 responses
Splenocytes [3]; [7]
  IL-2 elispot response to citrullinated peptide, mean: weak
  IL-17 elispot response to wild type peptide, mean: failed to stimulate a significant IFNγ or IL-17 response
Splenocytes [3]; [8]
  IFNγ elispot response to wild type peptide, mean: failed to stimulate a significant IFNγ or IL-17 response

## RAPFDLFENRKKKNN [HSP90 346-360]
Splenocytes [3]
  IFNg elispot response to citrullinated peptide over unmodified peptide or background control: significant responses

## RKKLSELLRYYTSASGDEMVSL [HSP90 456-477]
Splenocytes [3]
  IFNg elispot response to citrullinated peptide over unmodified peptide or background control: significant responses

## RLRSSVPGVRLLQDSVDFS [Vimentin 10]
Splenocytes [4]
  IL-17 response, screening of citrullinated 20 mer peptides: 350 spots/million splenocytes

## RSYVTTSTRTYSLGSALRPSTS [wild type vim 28-49]
PBMC
  patients showing a proliferative response (SI >2.5): Two of eight
PBMC; listed as Wild type vim 28-49 peptide
  patients showing a proliferative response (SI >2.5): 2/11
Splenocytes [3]; [6]
  IL-10 elispot responses: No significant IL-10 responses
Splenocytes [3]; [9]
  IL-2 elispot responses: weak
  IL-17 elispot responses: weak
Splenocytes [3]; [8]
  IFNγ elispot response to citrullinated peptide, mean: 1,100 /million splenocytes
  IFNγ elispot response to wild type peptide, mean: 700 /million splenocytes
B16F1-DR4 cells
  anti-tumour response / survival: anti-tumour response that almost reached significance

## SAVRLRSSVPGVR [wild type vim 65-77 peptide]
PBMC; listed as vim 65
  patients showing a proliferative response (SI >2.5): Four out of eight
PBMC; listed as vim 65-77
  patients showing a proliferative response (SI >2.5): 4/9
Splenocytes [3]; [7]
  IL-17 elispot response to citrullinated peptide, mean: weak
  IL-17 elispot response to wild type peptide, mean: weak
Splenocytes [3]; [8]
  IFNγ elispot response to citrullinated peptide, mean: weak
  IFNγ elispot response to wild type peptide, mean: weak

## VPAYFNDAQRQATKDA [BiP 172-186]
Splenocytes [3]
  IFNg elispot response to citrullinated peptide over unmodified peptide or background control: significant responses

## Vim 28-49 only citrullinated at position 28: vimentin 28-49 peptide with citrulline only at position 28 ([Cit]SYVTTSTRTYSLGSALRPSTS; UniProt P08670 28-49, looked up, fragment)
Splenocytes [3]
  IFNγ elispot response against vimentin 28-49 triple, double and single citrullinated peptides: gave a response to the tri-citrullinated peptide and the Vim 45 citrullinated peptide

## YSCVGVFKNGRVEII [BiP 39-53]
Splenocytes [3]
  IFNg elispot response to citrullinated peptide over unmodified peptide or background control: significant responses

## mouse vim 415 cit: murine vimentin 415-433 citrullinated peptide (LPTFSSLNL[Cit]ETNLESLPL; UniProt P20152 415-433, looked up, fragment)
Splenocytes [3]; 25 μg peptide day 0, PC61 three days before, IFNγ elispot day 14
  influence of natural Treg depletion (anti-CD25 mAb) on the response: no influence on the frequency or the avidity of the response

## vim 28 and 36 citrullinated peptide: vimentin 28-49 peptide citrullinated at positions 28 and 36 ([Cit]SYVTTST[Cit]TYSLGSALRPSTS; UniProt P08670 28-49, looked up, fragment)
Splenocytes [3]
  IFNγ elispot response against vimentin 28-49 triple, double and single citrullinated peptides: responded to the triple
